Experiment: solubility in water (ammonia alkali) by filter paper spot
Type: physicochemical
Details: aqueous buffer

| Structure (SMILES) | solubility [mg/mL] |
| --- | --- |
| Nc1c(N=Nc2ccc3c(O)c(N=Nc4ccc(N=Nc5c(C(=O)O)nn(-c6ccc(S(=O)(=O)O)cc6)c5O)c(S(=O)(=O)O)c4)c(S(=O)(=O)O)cc3c2S(=O)(=O)O)cc(S(=O)(=O)O)c2cc(S(=O)(=O)O)c(N=Nc3ccc([N+](=O)[O-])cc3S(=O)(=O)O)c(O)c12 [compound 1] | ≥ 100 |
| Nc1c(N=Nc2ccc3c(O)c(N=Nc4cc(S(=O)(=O)O)c(N=Nc5c(C(=O)O)nn(-c6ccc(S(=O)(=O)O)cc6)c5O)cc4S(=O)(=O)O)c(S(=O)(=O)O)cc3c2S(=O)(=O)O)cc(S(=O)(=O)O)c2cc(S(=O)(=O)O)c(N=Nc3ccc([N+](=O)[O-])cc3S(=O)(=O)O)c(O)c12 [compound 9] | ≥ 100 |
| Nc1c(N=Nc2ccc3c(O)c(N=Nc4ccc(S(=O)(=O)O)c(/N=N/c5c(C(=O)O)nn(-c6ccc(S(=O)(=O)O)cc6)c5O)c4)c(S(=O)(=O)O)cc3c2S(=O)(=O)O)cc(S(=O)(=O)O)c2cc(S(=O)(=O)O)c(N=Nc3ccc([N+](=O)[O-])cc3S(=O)(=O)O)c(O)c12 [compound 13] | ≥ 100 |
| Nc1c(N=Nc2ccc3c(O)c(N=Nc4ccc(N=Nc5c(C(=O)O)nn(-c6cc(S(=O)(=O)O)ccc6S(=O)(=O)O)c5O)c(S(=O)(=O)O)c4)c(S(=O)(=O)O)cc3c2S(=O)(=O)O)cc(S(=O)(=O)O)c2cc(S(=O)(=O)O)c(N=Nc3ccc([N+](=O)[O-])cc3S(=O)(=O)O)c(O)c12 [compound 21] | ≥ 100 |
| Nc1c(N=Nc2ccc3c(O)c(N=Nc4ccc(N=Nc5c(C(=O)O)nn(-c6ccc(S(=O)(=O)O)cc6)c5O)c(S(=O)(=O)O)c4)c(S(=O)(=O)O)cc3c2S(=O)(=O)O)cc(S(=O)(=O)O)c2cc(S(=O)(=O)O)c(N=Nc3ccc(S(=O)(=O)O)cc3[N+](=O)[O-])c(O)c12 [compound 22] | ≥ 100 |
| Nc1c(N=Nc2ccc3c(O)c(N=Nc4cc(S(=O)(=O)O)c(N=Nc5c(C(=O)O)nn(-c6ccc(S(=O)(=O)O)cc6)c5O)cc4S(=O)(=O)O)c(S(=O)(=O)O)cc3c2S(=O)(=O)O)cc(S(=O)(=O)O)c2cc(S(=O)(=O)O)c(N=Nc3ccc(S(=O)(=O)O)cc3[N+](=O)[O-])c(O)c12 [compound 23] | ≥ 100 |
| COc1cc([N+](=O)[O-])c(S(=O)(=O)O)cc1N=Nc1c(S(=O)(=O)O)cc2c(S(=O)(=O)O)cc(N=Nc3ccc4c(O)c(N=Nc5ccc(N=Nc6c(C(=O)O)nn(-c7ccc(S(=O)(=O)O)cc7)c6O)c(S(=O)(=O)O)c5)c(S(=O)(=O)O)cc4c3S(=O)(=O)O)c(N)c2c1O [compound 24] | ≥ 100 |
| Nc1c(N=Nc2ccc3c(O)c(N=Nc4cc(Cl)c(N=Nc5c(C(=O)O)nn(-c6ccc(S(=O)(=O)O)cc6)c5O)c(S(=O)(=O)O)c4)c(S(=O)(=O)O)cc3c2S(=O)(=O)O)cc(S(=O)(=O)O)c2cc(S(=O)(=O)O)c(N=Nc3ccc([N+](=O)[O-])cc3S(=O)(=O)O)c(O)c12 [compound 25] | ≥ 100 |
| Nc1c(N=Nc2ccc3c(O)c(N=Nc4cc(C(=O)O)c(N=Nc5c(C(=O)O)nn(-c6ccc(S(=O)(=O)O)cc6)c5O)c(S(=O)(=O)O)c4)c(S(=O)(=O)O)cc3c2S(=O)(=O)O)cc(S(=O)(=O)O)c2cc(S(=O)(=O)O)c(N=Nc3ccc([N+](=O)[O-])cc3S(=O)(=O)O)c(O)c12 [compound 26] | ≥ 100 |
| Nc1c(N=Nc2ccc3c(O)c(N=Nc4ccc(N=Nc5c(C(=O)O)nn(-c6cc(C(=O)O)cc(C(=O)O)c6)c5O)c(S(=O)(=O)O)c4)c(S(=O)(=O)O)cc3c2S(=O)(=O)O)cc(S(=O)(=O)O)c2cc(S(=O)(=O)O)c(N=Nc3ccc([N+](=O)[O-])cc3S(=O)(=O)O)c(O)c12 [compound 27] | ≥ 100 |
